From patent US12697343B2, “Intravenous istaroxime for the treatment of acute heart failure” (Seismic Pharmaceuticals Operations LLC, priority 2021, dated 2026)
Structures can show the parent of a compound that is named as a salt. Where two headings read alike, the source gives them in different places.

Key:
[1] = tested on: patients hospitalized for acute heart failure (AHF); conditions: intention-to-treat analysis, Carubelli et al., cited from earlier work
[2] = intravenous infusion; cited from earlier work
[3] = tested on: patients hospitalized for acute heart failure (AHF); set-up: species or system human; conditions: in vivo
Protocol: The primary efficacy endpoint was the change from baseline to 24 h after the start of the infusion in the E/e ratio assessed by tissue Doppler echocardiography. Secondary endpoints included the change from baseline to 24 h of other echocardiography parameters: LVEF, left ventricular end-systolic and end-diastolic volumes, stroke volume index, E, A, E/A ratio, and S′: changes in dyspnoea by visual analogue scale (VAS) and in NT-proBNP from baseline to 24 h: proportion of patients with hospital readmissions or emergency visits for cardiovascular reasons by day 30; proportion of patients with episodes of in-hospital worsening heart failure to day 4, and length of stay. […] Safety endpoints were assessed throughout the study and included: incidence of adverse events (AEs): change in vital signs and in 12-lead electrocardiographic (ECG) parameters: incidence of clinically or haemodynamically significant episodes of supraventricular or ventricular arrhythmias detected by continuous ECG monitoring: standard laboratory parameters: renal function: cardiac troponin T (cTnT): incidence of cTnT elevations, and mortality at day 30. […]
The study design included a 24 h screening period, a 24 h study drug infusion phase (day 1), a post-treatment phase (days 2-4), and a follow-up visit at day 30 (FIG. 5). […] AEs were monitored throughout the duration of the study. […]

[4] = tested on: patients hospitalized for acute heart failure (AHF); assay: Vital signs (systolic blood pressure, heart rate) during and after 24 h infusion; type: in vivo, human
Text: This study was a phase II, multicenter, randomized, double-blind, placebo-controlled, parallel group investigation, conducted at two sites in Italy and eight sites in China. All patients provided written informed consent. The study was approved by country regulatory authorities and by local institutional review boards. The trial is registered in the European Clinical Trials Database (EudraCT 2013-000540-26) and ClinicalTrials.gov (NCT02617446).
Patients were randomized 2:1 to istaroxime or placebo 24 h infusion and were enrolled in two sequential cohorts, the first with an istaroxime dose of 0.5 μg/kg/min and the second with an istaroxime dose of 1.0 μg/kg/min. At the end of cohort 1 enrollment, an independent Data Safety and Monitoring Board conducted an interim safety analysis of unblinded data before proceeding to cohort 2 enrollment. Inclusion criteria were: age ≥18 years, an ongoing hospitalization for AHF with dyspnoea at rest or minimal exertion and need for intravenous diuretic therapy (40 mg intravenous furosemide), SBP between 90 and 125 mmHg without signs or symptoms of peripheral hypoperfusion: LVEF ≤40%: intermediate to high E/e′ ratio by tissue Doppler echocardiography (10); brain natriuretic peptide (BNP) or N-terminal pro BNP (NT-proBNP) plasma levels ≥350 pg/mL or ≥1400 pg/mL, respectively, and presence of adequate echocardiographic windows. The main exclusion criteria were: concomitant or planned treatment with intravenous vasodilators, inotropes or vasopressors: treatment with oral digoxin (patients treated with digoxin within the last week could be randomized if the plasma concentration at screening was 0.5 ng/mL); acute coronary syndrome or stroke within the past 3 months: coronary artery bypass graft or percutaneous coronary intervention within the past month or planned in the next month: resting HR >120 bpm or <50 bpm: life-threatening ventricular arrhythmia or implantable cardioverter-defibrillator shock within the past month: fever 38° C.; serum creatinine 3.0 mg/dL or estimated glomerular filtration rate (eGFR) 30 mL/min/m2; serum potassium 5.3 mmol/L or 3.8 mmol/L; severe hepatic dysfunction.
The primary efficacy endpoint was the change from baseline to 24 h after the start of the infusion in the E/e ratio assessed by tissue Doppler echocardiography. Secondary endpoints included the change from baseline to 24 h of other echocardiography parameters: LVEF, left ventricular end-systolic and end-diastolic volumes, stroke volume index, E, A, E/A ratio, and S′: changes in dyspnoea by visual analogue scale (VAS) and in NT-proBNP from baseline to 24 h: proportion of patients with hospital readmissions or emergency visits for cardiovascular reasons by day 30; proportion of patients with episodes of in-hospital worsening heart failure to day 4, and length of stay. In-hospital worsening heart failure was defined by the need to increase the dose or reinitiate intravenous therapy with diuretics and/or other inotropic agents to day 4. Safety endpoints were assessed throughout the study and included: incidence of adverse events (AEs): change in vital signs and in 12-lead electrocardiographic (ECG) parameters: incidence of clinically or haemodynamically significant episodes of supraventricular or ventricular arrhythmias detected by continuous ECG monitoring: standard laboratory parameters: renal function: cardiac troponin T (cTnT): incidence of cTnT elevations, and mortality at day 30. Elevations in cTnT were considered significant if they were >50% or >20% from baseline values, for patients with cTnT below or above the 99% upper reference limit at baseline, respectively.
The study design included a 24 h screening period, a 24 h study drug infusion phase (day 1), a post-treatment phase (days 2-4), and a follow-up visit at day 30 (FIG. 5). Patients could be enrolled at any time after admission. The use of oral medications was permitted during the study with the exception of digoxin. […]

## C[C@]12CCC(=NOCCN)C[C@@H]1C(=O)C[C@@H]1[C@@H]2CC[C@]2(C)C(=O)CC[C@@H]12 [Istaroxime, (E,Z)-3-((2-aminoethoxy)imino)androstane-6,17-dione hydrochloride]
[1]; 0.5 μg/kg/min
  mean change in E/e′ ratio at 24 h: −4.55 (4.75)
[1]; 1.0 μg/kg/min
  mean change in E/e′ ratio at 24 h: −3.16 (2.59)
[2]
  half-time (washout after infusion termination): 60 min
[3]
  cardiac troponin absolute values: No significant changes
[4]; 0.5 μg/Kg/min, 3 hours
  HR mean change from baseline: −4.21 bpm
  SBP mean change from baseline: 1.49 mmHg
[4]; 0.5 μg/Kg/min, 6 hours
  HR mean change from baseline: −3.51 bpm
  SBP mean change from baseline: 2.92 mmHg
[4]; 0.5 μg/Kg/min, 12 hours
  HR mean change from baseline: −4.59 bpm
  SBP mean change from baseline: 3.13 mmHg
[4]; 0.5 μg/Kg/min, 24 hours
  HR mean change from baseline: −3.26 bpm
  SBP mean change from baseline: 2.82 mmHg
[4]; 0.5 μg/Kg/min, 48 hours
  HR mean change from baseline: −0.37 bpm
  SBP mean change from baseline: −3.10 mmHg
[4]; 0.5 μg/kg/min
  HR decreased from baseline by: about 3 bpm
  SBP increased from baseline by: about 3 mmHg
[4]; 1.0 μg/Kg/min, 3 hours
  HR mean change from baseline: −10.61 bpm
  SBP mean change from baseline: 7.63 mmHg
[4]; 1.0 μg/Kg/min, 6 hours
  HR mean change from baseline: −8.89 bpm
  SBP mean change from baseline: 8.08 mmHg
[4]; 1.0 μg/Kg/min, 12 hours
  HR mean change from baseline: −9.49 bpm
  SBP mean change from baseline: 9.00 mmHg
[4]; 1.0 μg/Kg/min, 24 hours
  HR mean change from baseline: −9.61 bpm
  SBP mean change from baseline: 6.11 mmHg
[4]; 1.0 μg/Kg/min, 48 hours
  HR mean change from baseline: 3.86 bpm
  SBP mean change from baseline: −1.73 mmHg
[4]; 1.0 μg/kg/min, significant vs. placebo at 3 to 12 h
  SBP increased from baseline by: 6-8 mmHg
[4]; 1.0 μg/kg/min, significant vs. placebo at 3 to 24 h
  HR decreased from baseline by: 8-9 bpm
